Among the data in patent publication US20220324865A1 (Bayer Aktiengesellschaft, priority 2018, published 2022) are IC50 values, retold here.

For the test, the target named is T1, human EP3 receptor (Homo sapiens, UniProt P43115).
T1 construct: expressed in transfected cells; host or cells: CHO K1 (Chinese Hamster Ovary), stably co-transfected with Galpha16 and mitochondrial clytin
T1 sequence (P43115 1-390): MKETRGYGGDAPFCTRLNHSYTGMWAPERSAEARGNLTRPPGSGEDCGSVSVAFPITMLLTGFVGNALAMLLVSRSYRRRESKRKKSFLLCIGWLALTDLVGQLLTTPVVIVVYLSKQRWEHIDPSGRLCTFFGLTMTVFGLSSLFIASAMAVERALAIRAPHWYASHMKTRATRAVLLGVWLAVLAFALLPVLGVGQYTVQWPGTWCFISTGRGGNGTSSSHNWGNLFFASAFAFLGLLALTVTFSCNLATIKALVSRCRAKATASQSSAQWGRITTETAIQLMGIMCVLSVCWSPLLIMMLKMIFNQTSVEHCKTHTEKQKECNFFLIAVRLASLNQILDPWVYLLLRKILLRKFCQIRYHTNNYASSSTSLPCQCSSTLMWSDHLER
The test is described as follows: Cellular in vitro assay for determining EP3 receptor activity (human EP3 cell line, sulprostone-stimulated calcium luminescence). The settings on record: CHO cells expressing human EP3 and mitochondrial Clytin; antagonist mode, sulprostone at EC50; read-out: EP3 CHO mtCLY ANTAG IC50. It counts as cell-based. Summed up: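 Antagonist activity was measured as inhibition of the luminescent calcium signal elicited by EC50 sulprostone, following 10 min compound pretreatment. The cell line was recombinant CHO K1 co-expressing human EP3, Gα16 and the photoprotein Clytin, reconstituted with coelenterazine.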
As for `Cc1ccc(-c2cn3nc(C(=O)NCC(O)C(F)(F)F)c(C(F)(F)F)c3c(=O)[nH]2)cc1C` (racemic) [6-115], the IC50 (usually the concentration needed to halve the response being measured) was found to be 0.95 nM.
`CCn1nccc1C(C)NC(=O)c1nn2c(C)c(-c3ccc4ccccc4c3)[nH]c(=O)c2c1C` (centres unmarked) [Example 3-12, N-[1-(1-Ethyl-1H-pyrazol-5-yl)ethyl]-3,7-dimethyl-6-(2-naphthyl)-4-oxo-4,5-dihydropyrazolo[1,5-a]pyrazine-2-carboxamide]: the IC50 stood at 1.75 nM.
`COc1ccc(C(C)NC(=O)c2nn3cc(-c4cnc5cccc(C)c5c4)[nH]c(=O)c3c2C(C)C)cc1` (centres unmarked) [Example 4-7, 3-Isopropyl-N-[1-(4-methoxyphenyl)ethyl]-6-(5-methyl-3-quinolyl)-4-oxo-5H-pyrazolo[1,5-a]pyrazine-2-carboxamide]: the half-inhibitory concentration (IC50) came out at 1.14 nM.
Turning to `COc1ccc(CCNC(=O)c2cc3c(=O)[nH]c(-c4ccc(C)c(Cl)c4)cn3n2)cc1OC` [6-15], the IC50 turned out to be 2.37 nM.
With `Cc1ccc(-c2cn3nc(C(=O)NC(C(C)C)C(O)C(F)(F)F)cc3c(=O)[nH]2)cc1C` (centres unmarked) [6-351], the IC50 was 7 nM.
As to `Cc1ccc(-c2cn3nc(C(=O)N[C@H](CCO)c4ccc(F)cc4)c(C4CC4)c3c(=O)[nH]2)cc1C` [Example 1-83, 3-Cyclopropyl-6-(3,4-dimethylphenyl)-N-[(1R)-1-(4-fluorophenyl)-3-hydroxpropyl]-4-oxo-4,5-dihydropyrazolo[1,5-a]pyrazine-2-carboxamide], the IC50 came out at 0.523 nM.
The figure for `COc1ccc2c(c1)C(NC(=O)c1nn3cc(-c4cnc5cccc(C)c5c4)[nH]c(=O)c3c1C(C)C)CC(C)(C)O2` (centres unmarked) [Example 4-74, 3-Isopropyl-N-(6-methoxy-2,2-dimethyl-3,4-dihydro-2H-chromen-4-yl)-6-(5-methylquinolin-3-yl)-4-oxo-4,5-dihydropyrazolo[1,5-a]pyrazine-2-carboxamide] is 6.05 nM; for `Cc1cccc2ncc(-c3cn4nc(C(=O)N[C@H](C)c5ccc(F)cc5)cc4c(=O)[nH]3)cc12` [6-64] it is 2.5 nM.
`Cc1nn(C)c(C)c1C(C)NC(=O)c1cc2c(=O)[nH]c(-c3ccc4ccccc4c3)cn2n1` (centres unmarked) [Example 2-21, 6-(2-Naphthyl)-4-oxo-N-[1-(1,3,5-trimethyl-1H-pyrazol-4-yl)ethyl]-4,5-dihydropyrazolo[1,5-a]pyrazine-2-carboxamide]: the IC50 was determined as 4.45 nM.
On to `COc1cc(-c2cn3nc(C(=O)N[C@@H](c4ccc(F)cc4)C(F)(F)CO)c(C4CC4)c3c(=O)[nH]2)ccc1Cl` [6-486], for which the IC50 is 2.1 nM.
The figure for `Cc1ccc(-c2cn3nc(C(=O)N[C@@H](C)C4CC4)c(C4CC4)c3c(=O)[nH]2)cc1Cl` [6-254] is 2.3 nM; for `Cc1cccc2ncc(-c3cn4nc(C(=O)N[C@H](CCO)c5ccccc5)c(C(C)C)c4c(=O)[nH]3)cc12` [Example 1-88, N-[(1R)-3-Hydroxy-1-phenylpropyl]-6-(5-methylquinolin-3-yl)-4-oxo-3-(propan-2-yl)-4,5-dihydropyrazolo[1,5-a]pyrazine-2-carboxamide] it is 1.35 nM; for `Cc1ccc(-c2cn3nc(C(=O)NC(C)c4ccc(F)cc4)cc3c(=O)[nH]2)cc1C(F)(F)F` (centres unmarked) [6-25] it is 9.1 nM.
Take `O=C(NC1(c2ccc(F)cc2)CN(C(CF)CF)C1)c1nn2cc(-c3ccc4ccccc4c3)[nH]c(=O)c2c1C(F)(F)F` [Example 1-177, N-[1-(1,3-Difluoropropan-2-yl)-3-(4-fluorophenyl)azetidin-3-yl]-6-(naphthalen-2-yl)-4-oxo-3-(trifluoro-methyl)-4,5-dihydropyrazolo[1,5-a]pyrazine-2-carboxamide]: the IC50 is 5 nM.
As for `Cc1nn(C(C)CNC(=O)c2cc3c(=O)[nH]c(-c4ccc5ccccc5c4)cn3n2)c(C)c1Cl` (centres unmarked) [Example 2-46, N-[2-(4-Chlor-3,5-dimethyl-1H-pyrazol-1-yl)propyl]-6-(2-naphthyl)-4-oxo-4,5-dihydropyrazolo[1,5-a]pyrazine-2-carboxamide], the IC50 is 2.95 nM.
Take `Cc1ccc(-c2cn3nc(C(=O)NC4CC4C(C)C)c(C(F)(F)F)c3c(=O)[nH]2)cc1F` (single isomer, unassigned) [6-145]: the IC50 is 6.25 nM.
Consider `COC[C@H](NC(=O)c1nn2cc(-c3ccc(C)c(Cl)c3)[nH]c(=O)c2c1C1CC1)c1ccccc1` [6-277], for which the IC50 is 4.1 nM.
As to `Cc1cc(-c2cn3nc(C(=O)NC4(c5ccc(F)cc5)CN(C)C4)c(C4CC4)c3c(=O)[nH]2)c(F)cc1Cl` [6-593], the IC50 turned out to be 8.43 nM.
With `Cc1ccc(-c2cn3nc(C(=O)NCCN(C)C4CC4)c(C4CC4)c3c(=O)[nH]2)cc1C` [6-661], the IC50 is 1.43 nM.
The figure for `Cc1ccc(-c2cn3nc(C(=O)NC(C)C4CCC4)c(C4CC4)c3c(=O)[nH]2)cc1Cl` (centres unmarked) [6-279] is 0.49 nM; for `Cc1ccc(-c2cn3nc(C(=O)NCc4ccccc4)cc3c(=O)[nH]2)cc1C` [6-22] it is 4 nM; for `Cc1cccc2ncc(-c3cn4nc(C(=O)Nc5ccnn5C(C)C)c(C(C)C)c4c(=O)[nH]3)cc12` [Example 4-15, 6-(5-Methylquinolin-3-yl)-4-oxo-3-(propan-2-yl)-N-[1-(propan-2-yl)-1H-pyrazol-5-yl]-4,5-dihydropyrazolo[1,5-a]pyrazine-2-carboxamide] it is 2.9 nM.
Consider `Cc1ccc(-c2cn3nc(C(=O)NC4(c5ccc(F)cc5)CC4)cc3c(=O)[nH]2)cc1C(F)(F)F` [6-26], for which the IC50 is 5 nM.
Consider `Cc1ccc(-c2cn3nc(C(=O)NC4(c5ccc(F)cc5)CN(CC(F)(F)F)C4)c(C(F)(F)F)c3c(=O)[nH]2)cc1Cl` [6-201], for which the IC50 was determined as 3.05 nM.
As for `Cc1ccc(-c2cn3nc(C(=O)NCC(N)C(F)(F)F)c(C4CC4)c3c(=O)[nH]2)cc1C` (single isomer, unassigned) [6-433], the IC50 is 0.76 nM.
`Cc1ccc(-c2cn3nc(C(=O)N[C@H](CCO)c4ccc(F)cc4)c(Cl)c3c(=O)[nH]2)cc1C` [Example 1-63, 3-Chloro-6-(3,4-dimethylphenyl)-N-[(1R)-1-(4-fluorophenyl)-3-hydroxypropyl]-4-oxo-4,5-dihydropyrazolo[1,5-a]pyrazine-2-carboxamide]: the IC50 amounted to 0.443 nM.
The same measure for `Cc1ccc(-c2cn3nc(C(=O)NC[C@]4(C5CC5)NC(=O)NC4=O)c(C4CC4)c3c(=O)[nH]2)cc1C` [6-457]: 4.65 nM.
`Cc1cc(-c2cn3nc(C(=O)NCC(O)C(F)(F)F)c(C4CC4)c3c(=O)[nH]2)ccc1Cl` (racemic) [6-312]: the IC50 turned out to be 1.3 nM.
Turning to `O=C(NC1(c2ccc(F)cc2)CN(C2CC2)C1)c1nn2cc(-c3ccc(Cl)c(F)c3)[nH]c(=O)c2c1C1CC1` [6-104], the IC50 amounted to 1.25 nM.
The same measure for `O=C(N[C@H](CN1CC(F)(F)C1)c1ccccc1)c1cc2c(=O)[nH]c(-c3ccc4ccccc4c3)cn2n1` [6-544]: 1.65 nM; for `CCc1ccc(C(C)NC(=O)c2cc3c(=O)[nH]c(-c4ccc5ccccc5c4)cn3n2)cc1` (centres unmarked) [Example 2-39, N-[1-(4-Ethylphenyl)ethyl]-6-(2-naphthyl)-4-oxo-4,5-dihydropyrazolo[1,5-a]pyrazine-2-carboxamide]: 3.7 nM; for `COc1ccc(C2(NC(=O)c3nn4cc(-c5ccc6c(c5)OCCO6)[nH]c(=O)c4c3C3CC3)CN(C)C2)cc1` [6-464]: 3.6 nM.
Consider `COC(=O)N1CC(NC(=O)c2cc3c(=O)[nH]c(-c4ccc5ccccc5c4)cn3n2)(c2ccc(F)cc2)C1` [Example 1-50, Methyl 3-(4-fluorophenyl)-3-({[6-(naphthalen-2-yl)-4-oxo-4,5-dihydropyrazolo[1,5-a]pyrazin-2-yl]-carbonyl}amino)azetidine-1-carboxylate], for which the IC50 was found to be 3.53 nM.
The same measure for `Cc1ccc(-c2cn3nc(C(=O)NC(C)C4CCC4)c(C(F)(F)F)c3c(=O)[nH]2)cc1Cl` (racemic) [6-193]: 4.05 nM; for `Cc1cc(-c2cn3nc(C(=O)N[C@H](C)C(C)C)c(C4CC4)c3c(=O)[nH]2)ccc1Cl` [6-336]: 3.45 nM; for `Cc1cc(-c2cn3nc(C(=O)N[C@@H](c4ccc(F)cc4)C(F)(F)CO)c(C4CC4)c3c(=O)[nH]2)ccc1Cl` [Example 1-172, 6-(4-Chloro-3-methylphenyl)-3-cyclopropyl-N-[(1S)-2,2-difluoro-1-(4-fluorophenyl)-3-hydroxpropyl]-4-oxo-4,5-dihydropyrazolo[1,5-a]pyrazine-2-carboxamide]: 0.86 nM.
As to `O=C(N[C@H](CCO)c1ccc(F)cc1)c1cc2c(=O)[nH]c(-c3ccc4c(c3)CCC4)cn2n1` [Example 1-97, 6-(2,3-Dihydro-1H-inden-5-yl)-N-[(1R)-1-(4-fluorophenyl)-3-hydroxpropyl]-4-oxo-4,5-dihydropyrazolo[1,5-a]pyrazine-2-carboxamide], the IC50 was 0.88 nM.
Regarding `Cc1ccc(-c2cn3nc(C(=O)NC4CC(F)(F)C4)c(C4CC4)c3c(=O)[nH]2)cc1Cl` [6-255], the IC50 was 0.95 nM.
With `C[C@H](NC(=O)c1nn2cc(-c3cc(Cl)c(Cl)cc3F)[nH]c(=O)c2c1C1CC1)C1CC1` [6-581], the IC50 came to 1.6 nM.
Regarding `Cc1cc(-c2cn3nc(C(=O)N[C@@H](C)C4CC4)c(C4CC4(F)F)c3c(=O)[nH]2)ccc1Cl` (some centres unmarked) [6-550], the half-inhibitory concentration (IC50) is 0.84 nM.
In the case of `Cc1cccc2ncc(-c3cn4nc(C(=O)NCc5ccnn5C)c(C(C)C)c4c(=O)[nH]3)cc12` [Example 4-22, N-[(1-Methyl-1H-pyrazol-5-yl)methyl]-6-(5-methylquinolin-3-yl)-4-oxo-3-(propan-2-yl)-4,5-dihydropyrazolo[1,5-a]pyrazine-2-carboxamide], the IC50 came to 0.815 nM.
